{"source": "ChEMBL document CHEMBL5465560", "about": "“Selectivity Literature for EUbOPEN Chemogenomic Library” (2024)", "key": {"[1]": {"molecular_target": "T1, Serine/threonine-protein kinase Nek9 (Homo sapiens) (UniProt Q8TD19)", "T1 sequence (whole entry)": "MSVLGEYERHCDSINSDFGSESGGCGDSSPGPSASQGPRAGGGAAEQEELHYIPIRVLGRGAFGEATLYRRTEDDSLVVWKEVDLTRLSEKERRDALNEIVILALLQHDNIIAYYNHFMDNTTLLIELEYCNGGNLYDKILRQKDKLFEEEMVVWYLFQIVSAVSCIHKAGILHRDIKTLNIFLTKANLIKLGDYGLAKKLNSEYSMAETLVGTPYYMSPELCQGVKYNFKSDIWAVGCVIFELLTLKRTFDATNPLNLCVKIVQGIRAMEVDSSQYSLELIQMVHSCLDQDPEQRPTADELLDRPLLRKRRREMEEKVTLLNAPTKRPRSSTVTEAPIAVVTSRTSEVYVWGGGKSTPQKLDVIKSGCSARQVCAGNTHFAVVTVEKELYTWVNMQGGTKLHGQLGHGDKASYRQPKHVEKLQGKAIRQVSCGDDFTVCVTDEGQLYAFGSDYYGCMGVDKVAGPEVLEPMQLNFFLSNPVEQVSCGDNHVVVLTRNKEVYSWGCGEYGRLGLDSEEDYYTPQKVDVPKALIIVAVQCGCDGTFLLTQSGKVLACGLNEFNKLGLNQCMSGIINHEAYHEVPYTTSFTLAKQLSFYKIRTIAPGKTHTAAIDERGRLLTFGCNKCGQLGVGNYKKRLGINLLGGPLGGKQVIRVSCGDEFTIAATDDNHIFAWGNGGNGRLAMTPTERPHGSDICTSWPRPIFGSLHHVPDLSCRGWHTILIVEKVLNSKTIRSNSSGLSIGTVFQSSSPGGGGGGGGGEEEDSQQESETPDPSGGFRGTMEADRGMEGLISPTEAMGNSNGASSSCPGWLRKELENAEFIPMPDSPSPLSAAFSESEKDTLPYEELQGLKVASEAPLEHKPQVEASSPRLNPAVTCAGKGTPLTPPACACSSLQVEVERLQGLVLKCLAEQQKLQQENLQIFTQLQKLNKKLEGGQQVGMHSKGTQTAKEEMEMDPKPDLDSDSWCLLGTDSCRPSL", "test": "Selectivity interaction (Ambit KINOMEscan and KiNATiv profiling in Jurkat cells) EUB0000090b NEK9", "assay_type": "cell-based", "settings": "at 1 µM"}, "[2]": {"molecular_target": "T2, Mitogen-activated protein kinase 13 (Homo sapiens) (UniProt O15264)", "T2 sequence (whole entry)": "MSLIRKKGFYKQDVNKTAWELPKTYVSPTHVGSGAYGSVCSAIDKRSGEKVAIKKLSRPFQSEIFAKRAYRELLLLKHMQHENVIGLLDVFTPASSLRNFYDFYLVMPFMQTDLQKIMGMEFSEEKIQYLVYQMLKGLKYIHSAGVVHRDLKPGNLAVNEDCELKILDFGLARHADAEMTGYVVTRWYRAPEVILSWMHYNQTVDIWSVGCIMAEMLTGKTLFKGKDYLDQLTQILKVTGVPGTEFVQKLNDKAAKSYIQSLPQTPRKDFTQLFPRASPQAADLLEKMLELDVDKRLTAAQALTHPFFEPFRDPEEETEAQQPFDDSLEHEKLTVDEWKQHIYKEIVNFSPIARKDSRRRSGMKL", "test": "Selectivity interaction (Millipore kinase profiler) EUB0000124b MAPK13", "settings": "at 10 µM"}, "[3]": {"system": "Phosphatidylinositol 4,5-bisphosphate 3-kinase catalytic subunit alpha isoform (Homo sapiens), P42336 [Q546K]", "sequence (P42336 whole entry Q546K, canonical isoform)": "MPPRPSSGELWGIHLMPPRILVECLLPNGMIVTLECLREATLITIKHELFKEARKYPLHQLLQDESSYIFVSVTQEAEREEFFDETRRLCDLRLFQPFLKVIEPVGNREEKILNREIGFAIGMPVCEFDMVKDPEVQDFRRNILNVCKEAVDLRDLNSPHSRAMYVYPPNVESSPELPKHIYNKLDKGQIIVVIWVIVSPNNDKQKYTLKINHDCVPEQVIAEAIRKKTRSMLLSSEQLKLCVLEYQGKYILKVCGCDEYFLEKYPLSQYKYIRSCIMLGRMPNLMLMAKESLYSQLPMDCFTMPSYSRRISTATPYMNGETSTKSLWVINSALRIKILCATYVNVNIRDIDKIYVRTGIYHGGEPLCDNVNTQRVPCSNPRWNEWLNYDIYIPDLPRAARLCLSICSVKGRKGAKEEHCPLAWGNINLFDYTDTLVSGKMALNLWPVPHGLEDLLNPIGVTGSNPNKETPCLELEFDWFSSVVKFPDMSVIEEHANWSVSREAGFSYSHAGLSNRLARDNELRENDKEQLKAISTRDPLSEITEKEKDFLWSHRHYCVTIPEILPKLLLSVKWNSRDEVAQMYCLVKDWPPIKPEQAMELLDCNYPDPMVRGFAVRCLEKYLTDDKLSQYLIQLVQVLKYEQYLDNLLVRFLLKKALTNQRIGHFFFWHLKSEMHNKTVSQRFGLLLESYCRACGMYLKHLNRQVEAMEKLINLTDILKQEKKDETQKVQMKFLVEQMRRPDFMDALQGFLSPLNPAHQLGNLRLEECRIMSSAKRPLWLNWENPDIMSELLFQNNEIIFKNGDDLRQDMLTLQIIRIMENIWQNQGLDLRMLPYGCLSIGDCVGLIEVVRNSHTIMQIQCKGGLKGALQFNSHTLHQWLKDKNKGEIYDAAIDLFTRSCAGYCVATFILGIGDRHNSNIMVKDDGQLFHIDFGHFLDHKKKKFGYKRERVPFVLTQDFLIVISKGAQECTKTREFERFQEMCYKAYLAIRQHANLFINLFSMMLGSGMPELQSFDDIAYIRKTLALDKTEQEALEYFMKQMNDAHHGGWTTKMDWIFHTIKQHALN", "settings": "at 10 µM"}, "[4]": {"molecular_target": "Mitogen-activated protein kinase kinase kinase kinase 1 (Homo sapiens) (UniProt Q92918)", "sequence (Q92918 whole entry, looked up)": "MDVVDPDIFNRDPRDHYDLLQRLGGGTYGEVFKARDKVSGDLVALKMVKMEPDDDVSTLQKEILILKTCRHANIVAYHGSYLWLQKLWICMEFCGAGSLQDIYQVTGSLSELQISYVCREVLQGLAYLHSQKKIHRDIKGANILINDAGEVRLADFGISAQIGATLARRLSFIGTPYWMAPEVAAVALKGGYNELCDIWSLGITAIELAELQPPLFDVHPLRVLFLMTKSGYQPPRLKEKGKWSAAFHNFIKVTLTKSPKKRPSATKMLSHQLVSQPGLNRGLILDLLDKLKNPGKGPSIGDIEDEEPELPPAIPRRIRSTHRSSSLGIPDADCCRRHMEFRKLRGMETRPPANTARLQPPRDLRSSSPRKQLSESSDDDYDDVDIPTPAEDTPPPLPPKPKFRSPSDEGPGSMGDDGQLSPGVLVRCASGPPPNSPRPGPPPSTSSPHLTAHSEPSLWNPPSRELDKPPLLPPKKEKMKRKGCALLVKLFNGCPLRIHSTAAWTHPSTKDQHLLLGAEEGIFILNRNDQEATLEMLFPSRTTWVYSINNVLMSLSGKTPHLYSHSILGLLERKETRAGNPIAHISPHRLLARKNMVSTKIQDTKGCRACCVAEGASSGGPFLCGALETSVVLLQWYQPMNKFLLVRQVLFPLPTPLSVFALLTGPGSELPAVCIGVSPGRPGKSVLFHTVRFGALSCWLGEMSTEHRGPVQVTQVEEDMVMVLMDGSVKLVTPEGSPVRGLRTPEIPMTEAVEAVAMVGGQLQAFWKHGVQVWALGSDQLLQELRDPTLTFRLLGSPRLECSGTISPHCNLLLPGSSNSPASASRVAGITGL", "test": "Selectivity interaction (ActivX KiNativ screen (kinase selectivity in THP-1 cell lysates)) EUB0000639a MAP4K1", "assay_type": "subcellular", "settings": "lysate, at 5 µM"}, "[5]": {"molecular_target": "Serine/threonine-protein kinase MARK2 (Homo sapiens) (UniProt Q7KZI7)", "test": "Selectivity interaction (ActivX KiNativ screen (kinase selectivity in THP-1 cell lysates)) EUB0000639a MARK2", "assay_type": "subcellular", "settings": "lysate, at 1 µM"}, "[6]": {"molecular_target": "Ribosomal protein S6 kinase alpha-1 (Homo sapiens, UniProt Q15418)", "test": "Selectivity interaction (ActivX KiNativ screen (kinase selectivity in THP-1 cell lysates)) EUB0000639a RPS6KA1", "assay_type": "subcellular", "settings": "lysate, at 1 µM"}, "[7]": {"molecular_target": "Leucine-rich repeat serine/threonine-protein kinase 2 (Homo sapiens, UniProt Q5S007)", "sequence (Q5S007 whole entry)": "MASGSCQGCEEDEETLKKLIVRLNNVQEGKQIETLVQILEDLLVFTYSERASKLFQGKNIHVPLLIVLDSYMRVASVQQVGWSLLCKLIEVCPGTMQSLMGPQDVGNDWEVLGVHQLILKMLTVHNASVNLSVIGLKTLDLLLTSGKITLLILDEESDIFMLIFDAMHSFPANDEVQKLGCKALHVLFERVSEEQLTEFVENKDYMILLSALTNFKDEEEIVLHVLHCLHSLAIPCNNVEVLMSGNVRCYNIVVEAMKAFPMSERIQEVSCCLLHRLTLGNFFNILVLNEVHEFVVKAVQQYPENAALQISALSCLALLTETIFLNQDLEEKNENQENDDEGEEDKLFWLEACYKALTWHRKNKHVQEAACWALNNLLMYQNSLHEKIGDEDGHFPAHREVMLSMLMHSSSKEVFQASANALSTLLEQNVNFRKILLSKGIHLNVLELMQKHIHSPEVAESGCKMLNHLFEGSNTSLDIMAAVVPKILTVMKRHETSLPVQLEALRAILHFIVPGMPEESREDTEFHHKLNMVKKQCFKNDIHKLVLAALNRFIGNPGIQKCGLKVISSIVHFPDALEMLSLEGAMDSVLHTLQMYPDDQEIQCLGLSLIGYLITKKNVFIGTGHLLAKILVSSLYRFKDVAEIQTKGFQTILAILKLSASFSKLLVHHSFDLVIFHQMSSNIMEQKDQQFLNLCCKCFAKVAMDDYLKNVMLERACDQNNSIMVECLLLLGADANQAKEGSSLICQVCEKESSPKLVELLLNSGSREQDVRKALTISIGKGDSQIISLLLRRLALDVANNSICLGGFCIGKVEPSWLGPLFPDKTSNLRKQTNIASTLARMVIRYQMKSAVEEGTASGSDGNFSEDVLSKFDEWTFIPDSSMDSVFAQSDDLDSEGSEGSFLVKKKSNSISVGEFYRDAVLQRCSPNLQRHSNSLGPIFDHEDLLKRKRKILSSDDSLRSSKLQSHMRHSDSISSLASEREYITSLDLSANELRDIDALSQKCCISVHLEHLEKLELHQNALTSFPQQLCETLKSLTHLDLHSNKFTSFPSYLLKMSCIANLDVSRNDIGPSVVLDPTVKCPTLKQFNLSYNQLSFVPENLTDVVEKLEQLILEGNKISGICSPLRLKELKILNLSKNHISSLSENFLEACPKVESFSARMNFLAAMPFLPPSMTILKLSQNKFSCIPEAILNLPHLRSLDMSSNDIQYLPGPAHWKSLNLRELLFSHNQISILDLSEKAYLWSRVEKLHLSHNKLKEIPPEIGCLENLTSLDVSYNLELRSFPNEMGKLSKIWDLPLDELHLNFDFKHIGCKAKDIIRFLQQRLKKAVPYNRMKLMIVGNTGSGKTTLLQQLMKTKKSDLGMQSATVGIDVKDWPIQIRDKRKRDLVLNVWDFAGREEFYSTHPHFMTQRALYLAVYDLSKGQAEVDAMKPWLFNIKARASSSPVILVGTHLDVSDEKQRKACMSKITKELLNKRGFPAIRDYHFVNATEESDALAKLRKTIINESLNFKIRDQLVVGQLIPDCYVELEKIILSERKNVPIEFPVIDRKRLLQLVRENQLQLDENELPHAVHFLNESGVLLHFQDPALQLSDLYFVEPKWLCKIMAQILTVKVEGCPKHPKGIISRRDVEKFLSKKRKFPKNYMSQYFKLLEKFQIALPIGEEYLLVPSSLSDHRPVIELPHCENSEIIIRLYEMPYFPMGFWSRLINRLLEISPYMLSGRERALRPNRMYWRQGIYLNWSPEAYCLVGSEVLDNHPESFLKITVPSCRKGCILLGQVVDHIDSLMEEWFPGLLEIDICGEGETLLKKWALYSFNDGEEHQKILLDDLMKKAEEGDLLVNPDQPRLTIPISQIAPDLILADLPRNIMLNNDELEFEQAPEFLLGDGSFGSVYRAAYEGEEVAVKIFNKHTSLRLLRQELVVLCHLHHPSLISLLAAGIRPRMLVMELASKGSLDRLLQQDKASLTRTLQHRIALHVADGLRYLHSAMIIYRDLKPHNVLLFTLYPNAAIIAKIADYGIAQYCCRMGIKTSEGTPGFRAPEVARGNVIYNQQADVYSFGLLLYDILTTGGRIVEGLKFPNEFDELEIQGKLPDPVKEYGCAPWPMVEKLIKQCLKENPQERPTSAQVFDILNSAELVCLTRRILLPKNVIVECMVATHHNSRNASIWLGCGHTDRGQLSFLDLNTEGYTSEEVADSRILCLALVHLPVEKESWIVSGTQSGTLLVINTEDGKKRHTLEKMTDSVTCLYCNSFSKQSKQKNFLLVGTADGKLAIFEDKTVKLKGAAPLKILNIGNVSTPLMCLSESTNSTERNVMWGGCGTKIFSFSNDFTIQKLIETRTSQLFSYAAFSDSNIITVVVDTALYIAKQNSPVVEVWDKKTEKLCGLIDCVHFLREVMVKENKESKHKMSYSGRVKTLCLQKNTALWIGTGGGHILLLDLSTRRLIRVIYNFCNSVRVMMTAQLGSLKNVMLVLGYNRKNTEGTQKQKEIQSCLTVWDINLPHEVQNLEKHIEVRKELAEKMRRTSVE", "test": "Selectivity interaction (Kinase panel (Invitrogen)) EUB0000639a LRRK2", "settings": "at 200 nM"}, "[8]": {"molecular_target": "T3, Serine/threonine-protein kinase DCLK2 (Homo sapiens) (UniProt Q8N568)", "T3 sequence (whole entry)": "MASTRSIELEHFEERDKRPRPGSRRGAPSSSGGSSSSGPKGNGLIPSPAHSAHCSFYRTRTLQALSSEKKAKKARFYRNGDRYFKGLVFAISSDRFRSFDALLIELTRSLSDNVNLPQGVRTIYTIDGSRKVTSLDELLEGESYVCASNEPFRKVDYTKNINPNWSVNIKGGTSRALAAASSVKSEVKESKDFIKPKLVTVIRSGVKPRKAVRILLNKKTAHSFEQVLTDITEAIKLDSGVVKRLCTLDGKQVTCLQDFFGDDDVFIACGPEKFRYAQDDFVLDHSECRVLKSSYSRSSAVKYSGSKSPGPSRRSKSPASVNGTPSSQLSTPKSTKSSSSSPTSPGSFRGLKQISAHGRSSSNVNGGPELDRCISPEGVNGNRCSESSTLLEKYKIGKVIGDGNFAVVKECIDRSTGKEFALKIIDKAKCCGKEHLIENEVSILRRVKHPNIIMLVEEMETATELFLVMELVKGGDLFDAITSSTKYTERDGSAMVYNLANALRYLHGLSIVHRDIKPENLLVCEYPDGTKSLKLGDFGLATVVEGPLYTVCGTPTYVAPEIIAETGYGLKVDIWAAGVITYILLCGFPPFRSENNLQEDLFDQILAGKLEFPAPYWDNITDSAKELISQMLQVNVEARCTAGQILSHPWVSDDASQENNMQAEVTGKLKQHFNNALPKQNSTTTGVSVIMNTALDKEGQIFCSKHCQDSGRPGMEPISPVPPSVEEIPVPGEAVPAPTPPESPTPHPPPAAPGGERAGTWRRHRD", "test": "Selectivity interaction (KinomeScan (DiscoverX)) EUB0000229b DCLK2", "settings": "at 10 µM"}, "[9]": {"molecular_target": "Cyclin-dependent kinase-like 3 (Homo sapiens) (UniProt Q8IVW4)", "sequence (Q8IVW4 whole entry, looked up)": "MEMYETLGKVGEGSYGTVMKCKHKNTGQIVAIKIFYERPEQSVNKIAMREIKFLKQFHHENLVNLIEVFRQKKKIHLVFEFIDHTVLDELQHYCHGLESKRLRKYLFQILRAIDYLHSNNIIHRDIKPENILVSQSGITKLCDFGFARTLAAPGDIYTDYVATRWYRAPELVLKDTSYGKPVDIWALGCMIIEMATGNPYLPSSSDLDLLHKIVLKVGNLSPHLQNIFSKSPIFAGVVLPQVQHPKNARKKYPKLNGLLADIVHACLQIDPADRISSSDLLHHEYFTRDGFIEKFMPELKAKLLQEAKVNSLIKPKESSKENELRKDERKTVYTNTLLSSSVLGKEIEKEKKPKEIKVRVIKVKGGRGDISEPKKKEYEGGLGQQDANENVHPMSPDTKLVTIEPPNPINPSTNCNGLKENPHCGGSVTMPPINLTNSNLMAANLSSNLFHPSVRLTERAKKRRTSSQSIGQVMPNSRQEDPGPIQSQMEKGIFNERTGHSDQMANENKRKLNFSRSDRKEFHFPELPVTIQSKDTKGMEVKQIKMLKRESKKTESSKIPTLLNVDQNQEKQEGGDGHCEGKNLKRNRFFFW", "test": "Selectivity interaction (KinomeScan (DiscoverX)) EUB0000092b CDKL3", "settings": "at 10 µM"}, "[10]": {"molecular_target": "Serine/threonine-protein kinase RIO2 (Homo sapiens) (UniProt Q9BVS4)", "test": "Selectivity interaction (KinomeScan (DiscoverX)) EUB0001550a RIOK2", "settings": "at 1 µM"}}, "data": [{"smiles": "CN(C)C/C=C/C(=O)Nc1ccc(C(=O)N2CCCC(Nc3ncc(Cl)c(-c4c[nH]c5ccccc45)n3)C2)cc1", "note": "(stereo not given)", "values": [{"measurement": "% of control", "setting": "[1]", "value": 100, "unit": "%"}]}, {"smiles": "CC(=O)Nc1cccc(-n2c(=O)n(C3CC3)c(=O)c3c(Nc4ccc(I)cc4F)n(C)c(=O)c(C)c32)c1", "values": [{"measurement": "% of control", "setting": "[2]", "value": 109, "unit": "%"}]}, {"smiles": "COCC(=O)NC/C=C/c1ccc2ncnc(Nc3ccc(Oc4ccc(C)nc4)c(C)c3)c2c1", "note": "[CP-724714]", "values": [{"measurement": "% of control", "setting": "[3]", "value": 38, "unit": "%"}]}, {"smiles": "CC[C@@H]1[C@H](F)C(=O)N[C@@H]1COc1nccc2cc(C(N)=O)c(OC)cc12", "note": "[ZIMLOVISERTIB]", "values": [{"measurement": "% of inhibition", "setting": "[4]", "value": -4.3, "unit": "%"}, {"measurement": "% of inhibition", "setting": "[5]", "value": 4.3, "unit": "%"}, {"measurement": "% of inhibition", "setting": "[6]", "value": -1, "unit": "%"}, {"measurement": "% of inhibition", "setting": "[7]", "value": 75.5, "unit": "%"}]}, {"smiles": "COc1cc(N(C)c2ccnc3ccc(C(F)(F)F)cc23)cc(OC)c1OC", "values": [{"measurement": "% binding", "setting": "[8]", "value": 100, "unit": "%"}]}, {"smiles": "CCC(=O)N1CCN(c2ccc(-n3c(=O)ccc4cnc5ccc(-c6cnc7ccccc7c6)cc5c43)cc2C(F)(F)F)CC1", "values": [{"measurement": "% of control", "setting": "[9]", "value": 92, "unit": "%"}]}, {"smiles": "CN(C)CC#Cc1ccc2[nH]c3c(c2c1)-c1nc(N)ncc1CCC3", "values": [{"measurement": "% of control", "setting": "[10]", "value": 32, "unit": "%"}]}]}
